# Experiment: in vitro
# Conditions: human, hela cells, % viability
row,SMILES,"viability at 28.5 h, 10 µM"
1,NS(=O)(=O)c1ccc(NC(=O)CC2SC(=O)NC2=O)cc1 (stereo not shown) [CBK263855],98.9%
2,O=C(O)COc1ccc(C=C2C(=O)c3ccccc3C2=O)cc1Cl [CBK263857],87.3%
3,Cc1cc2nn(-c3ccccc3)nc2cc1NC(=O)c1ccc(-c2cccc([N+](=O)[O-])c2)o1 [CBK263859],99.6%
4,O=C(CSc1ccccn1)Nc1ccc2ccccc2c1 [CBK263860],101%
5,CN1CCN(c2ccc(S(=O)(=O)Nc3cc(C(=O)O)cc(C(=O)O)c3)cc2[N+](=O)[O-])CC1 [CBK263862],96.8%
6,Cc1ccc(-c2nc3ccccc3s2)cc1NC(=O)c1sc2ccccc2c1Cl [CBK263865],93.9%
7,COc1cc(CNC2CCCCC2)ccc1OCC(N)=O [CBK263866],90.9%
8,Cc1cccc(C2NS(=O)(=O)NC2=N)c1 (stereo not shown) [CBK263868],98.3%
9,O=C(O)C1C(c2ccccc2)C(C(=O)Oc2cccc3ccccc23)C1c1ccccc1 (stereo not shown) [CBK263869],110%
10,O=C(CN1C(=O)S/C(=C\C=C\c2ccccc2)C1=O)Nc1cccc2c1C(=O)c1ccccc1C2=O [CBK263870],87.1%
11,O=C(Nc1ccc2oc(-c3cccnc3)nc2c1)c1ccc(-c2ccccc2OC(F)(F)F)o1 [CBK263872],86.5%
12,CCOC(=O)C1=C(Nc2ccc([N+](=O)[O-])cc2)S/C(=C\c2ccc(O)c(OC)c2)C1=O [CBK263873],89.3%
13,CC(/C=C1\SC(=S)N(CCC(=O)Nc2ccc(O)c(C(=O)O)c2)C1=O)=C\c1ccccc1 [CBK263875],107%
14,N#C/C(=C\c1ccc(Oc2ccc(C(F)(F)F)cc2[N+](=O)[O-])cc1)c1nc2ccccc2[nH]1 [CBK263878],92.4%
15,COc1ccc(C(=O)Nc2ccc(S(=O)(=O)Nc3nccs3)cc2)cc1I [CBK263880],92.7%
16,CCCN1C(=O)N(CO)C2C1N(CO)C(=O)N2CCC (stereo not shown) [CBK263882],101%
17,COc1ccc(CC(=O)Nc2ccc(Nc3ccccc3)cc2)cc1 [CBK263884],114%
18,CC1CCN(c2ccc(S(=O)(=O)Nc3cc(C(=O)O)cc(C(=O)O)c3)cc2[N+](=O)[O-])CC1 [CBK263886],94.8%
19,COc1ccc(NCC(=O)N/N=C(\C)c2ccccc2O)cc1 [CBK263887],86.3%
20,CCCCc1c(C)nc2ccc(OC)cc2c1SCCC(=O)O [CBK263888],98.1%

row,SMILES,"viability at 28.5 h, 10 µM"
1,Cc1cc(C)nc(N/C(=N/C(=O)Cc2ccccc2)N2CCC(C(N)=O)CC2)n1 [CBK263889],107%
2,CCCc1c(C)nc2c(OC)cccc2c1SCCC(=O)O [CBK263890],122%
3,COc1cc(/C=C(\C#N)c2nc3ccccc3n2C)cc([N+](=O)[O-])c1O [CBK263893],91.4%
4,O=C(O)COc1ccc(/C=N/n2cnnc2)cc1Cl [CBK263902],99.3%
5,CN(CC(=O)O)S(=O)(=O)c1ccc2c(c1)OCCO2 [CBK263904],95.8%
6,O=C(Cc1ccc(Cl)cc1)NC(=S)Nc1ccccc1O [CBK263905],96.6%
7,O=C(CSC1=NC(=O)C(Cc2ccccc2)C(=O)N1)Nc1ncccn1 (stereo not shown) [CBK263906],120%
8,COc1ccc(OCC(=O)Nc2ccc3oc(-c4ccc(OC)c(Br)c4)nc3c2)cc1 [CBK263913],99.4%
9,O=C(COC(=O)CN1C(=O)C(=O)c2ccccc21)Nc1cccc2ccccc12 [CBK263915],90.5%
10,CCC(Sc1nnc2c(n1)[nH]c1ccccc12)C(=O)Nc1sc2c(c1C#N)CCCC2 (stereo not shown) [CBK263917],80.3%
11,CCC1C(=O)N=C(SCC(=O)Nc2ncccn2)NC1=O (stereo not shown) [CBK263920],94.6%
12,COc1ccc2nc(N/C(N)=N/C(=O)COc3ccc(Cl)cc3)nc(C)c2c1 [CBK263924],95%
13,CC(C(=O)Nc1ccc2oc(-c3ccccc3)nc2c1)(c1ccccc1)c1ccccc1 [CBK263928],91%
14,Cc1cccnc1NC(=S)NC(=O)c1ccc([N+](=O)[O-])cc1 [CBK263931],92.9%
15,COc1cc(/C=N/NC(=O)CC#N)ccc1OCc1ccccc1Cl [CBK263932],84.9%
16,O=C(O)c1cccc(C(=O)c2cccc(C(=O)O)c2)c1 [CBK263933],99.1%
17,CC(=O)c1c(C(=O)O)[nH]c(C(=O)O)c1C [CBK263934],87.4%
18,Nc1ncnc2c1C(c1ccc(Cl)cc1)c1c(ccc3ccccc13)O2 (stereo not shown) [CBK263938],101%
19,O=C(O)c1cccc(Nc2nc(-c3ccccc3)nc3ccccc23)c1 [CBK263941C],97.6%
20,N=C1NC(=O)C(CC(=O)Nc2cccc([N+](=O)[O-])c2)S1 (stereo not shown) [CBK263944],87.9%

row,SMILES,"viability at 28.5 h, 10 µM"
1,CC1(C)CC(NC(=O)c2cc([N+](=O)[O-])ccc2Cl)CC(C)(C)N1 [CBK263948],93.7%
2,CC(=O)Nc1cc(NC(=O)CCCC(=O)O)ccc1Cl [CBK263949],73.3%
3,CC1=NN(c2ccccc2)C(=O)/C1=C1/C(=O)Nc2c(C)cc(Br)cc21 [CBK263950],92%
4,O=C(O)/C=C\C(=O)Nc1cccc(NC(=O)c2cccs2)c1 [CBK263952],85.7%
5,CC(=O)Nc1ccccc1NC(=O)C(C)Oc1ccc(Cl)cc1Cl (stereo not shown) [CBK263954],96.8%
6,O=C(O)/C=C\C(=O)Nc1ccc(Cl)c(NC(=O)Cc2ccccc2)c1 [CBK263955],93.7%
7,Nc1c(Cl)cc(NC(=O)CCCC(=O)O)cc1Cl [CBK263957],91%
8,Cc1cccc(OCCOc2ccc(Br)cc2/C=C2\SC(=N)NC2=O)c1 [CBK263958],102%
9,O=C(Nc1cc(NC(=O)C2C3C=CC(C3)C2C(=O)O)ccc1Cl)c1cccs1 (stereo not shown) [CBK263959],89.6%
10,Cc1c(C)n(CC(O)CN2C(=O)c3ccccc3S2(=O)=O)c2ccccc12 (stereo not shown) [CBK263960],88.2%
11,O=C(O)CNC(=O)/C(=C\c1ccccc1F)NC(=O)c1ccccc1 [CBK263961],96.5%
12,O=C1CC(NCC2CCCO2)C(=O)N1c1ccc(N2C(=O)CC(NCC3CCCO3)C2=O)cc1 (stereo not shown) [CBK263962],89.9%
13,COc1ccc(C(=O)NC(c2ccco2)c2cc(Cl)c3cccnc3c2O)cc1 (stereo not shown) [CBK263964],91.9%
14,O=C(O)CNC(=O)/C(=C\c1ccco1)NC(=O)c1ccccc1Cl [CBK263967],84.8%
15,Cc1c(C)n(CC(O)CNCc2ccco2)c2ccccc12 (stereo not shown) [CBK263970G],97%
16,COc1cccc(C(=O)NC(c2ccc([N+](=O)[O-])cc2)c2c(O)ccc3ccccc23)c1 (stereo not shown) [CBK263971],84.2%
17,O=C(NC(=S)Nc1cccc(-c2nc3cc(Cl)ccc3o2)c1)c1ccccc1Br [CBK263973],95.8%
18,Cc1ccc(S(=O)(=O)N(CC(=O)Nc2cccnc2)c2ccc(C)c(C)c2)cc1 [CBK263974],75.4%
19,Cc1ccc(SCCNC(=O)COc2ccc(Cl)cc2Cl)cc1 [CBK263976],86.6%
20,COc1ccc(C)cc1S(=O)(=O)N1CCN(C(c2ccccc2)c2ccccc2)CC1 [CBK263977],91.8%

# Same assay, conditions: human, hela cells, % viability, bulk resorufin, single well
row,SMILES,"viability at 28.5 h, 10 µM"
1,Cc1ccc(N2C(=O)NC(=O)/C(=C\c3ccc(OCC(=O)O)c(Br)c3)C2=O)cc1C [CBK263899],84%
